Assays:
D. melangaster larvae = assay: Fly larva chemotaxis assay; assay type: in vivo, Drosophila melanogaster; details: D. melanogaster larvae, 1% vol in paraffin oil, 5 minutes
Protocol: Larvae were exposed to 1% vol solution of (E)-2-hexenal or methyl benzoate in paraffin oil loaded onto the lid of a petri dish. Their movement was tracked for 5 minutes. A preference index was quantified as the fraction of time larvae spent in a zone around the odour sources. A population of 15 larvae were used per trial and they were placed in the centre of the petri dish at the start of the experiment. The average distance of the larvae to the odour sources was also quantified over time. The results of this analysis are shown on FIG. 9, for each of the conditions where a VOC of the invention was used. A total of 10 trials were performed for each condition, i.e. for each VOC and fly species, and 30 trials were performed for a control condition, for which only the solvent paraffin oil was applied.
Behavioural experiments were performed with third instar foraging larvae. A group of approximately 15 larvae per trial was placed in a Petri dish and monitored during 5 minutes for their chemotactic behaviour, as larvae were exposed to an odour gradient in gas phase emanating from the two odour sources on the lid of the Petri dish. […] Larval behaviour was tracked using a video camera and the data derived was then analysed in Matlab (MathWorks) using custom-made programs to calculate additional time-series variables, and to determine the preference index and the distance of larvae to the source.

adult D. suzukii flies = assay: Petri dish assay, dose-range 0.3 to 10% vol in paraffin oil, 24 h exposure (FIG. 3E); assay type: in vivo, Drosophila suzukii; details: paraffin oil, 24 h exposure (Example 2)
From the text: Data are represented as mean proportion of dead flies, with counts separated between male (as indicated by ‘M’) and female (as indicated by ‘F’) flies. […] Data points marked NaN were not tested at the indicated concentration. The MEC column summarises the minimal effective concentration to induce 100% morbidity/mortality to adult D. suzukii flies.

D. suzukii = assay: Infestation of pre-odour-treated blueberries, emergence of adult flies; assay type: in vivo, Drosophila suzukii; details: 48 hours with adult flies, counted after 14 days
Protocol: Adult mixed female and male flies 20 (in the experiments below, D. suzukii flies) are placed in a cylindrical cage 60a with mesh roofing 80 for ventilation. Fruits 40 (in the experiments below 8 blueberries were used) are placed into a petri dish bottom 60b at the bottom of the cage 60a.
The blueberries were treated with (E)-2-hexenal and then exposed to flies. The impact of 1% vol, 5% vol and 10% vol aqueous emulsions of (E)-2-hexenal (obtained by dissolving the VOC in deionized water (DI) containing 1% (v/v) Tween 20 hydrophilic emulsifier) on egg-laying and the survival and development of larvae in pre-treated blueberries were compared to water-treated controls. In particular, the number of flies emerging after 14 days at ambient temperature was counted, following 48 hours of incubation of the treated blueberries with adult flies. The results of this analysis are shown on FIG. 6B. […] Significance was assessed by one-way ANOVA followed by Bonferroni correction at p≤0.05 and post-hoc two-sample t-test.
Eight ripe blueberries were dipped into 10 mL of a 1%, 5% or 10% aqueous emulsion of (E)-2-hexenal or deionised water as a control and left to air dry. They were then placed in a Petri dish at the bottom of a cylindrical plastic fly cage (∅=5.5 cm, h=7.5 cm), together with 20 mixed (10 females, 10 males) adult D. suzukii flies. The flies were exposed to the odour-treated blueberries during 48 hours at ambient room temperature conditions, after which they were removed and discarded. The blueberries were then transferred into an empty fly vial with cotton lids, and after 14 days at ambient room temperature conditions, the emergence of adult D. suzukii was examined by counting the number of flies. The assay was repeated 5 times.

D. suzukii larvae = assay: Survival and development of larvae in pre-infested blueberries; assay type: in vivo, Drosophila suzukii; details: counted after 12 days
Protocol: To investigate the impact of (E)-2-hexenal on the emergence of D. suzukii, eight ripe, untreated blueberries were placed in the cage 60a together with adult D. suzukii flies for 4 days. All flies were then removed and discarded and half of the pre-infested blueberries was dipped into 10 mL of a 1%, 5% or 10% E-2-hexenal aqueous emulsion (as above), while the other half was dipped in 10 mL deionized water as a control. Survival of D. suzukii larvae was measured by counting the number of adult flies that emerged from the odour-treated blueberries versus the control condition after 12 days.
The percentage of adult fly emergence under the treated and untreated conditions relative to the sum of all flies that emerged under both conditions in each assay was calculated. The results of these experiments are shown on FIG. 6C (1% vol (E)-2-hexenal), FIG. 6D (5% vol. (E)-2-hexenal), and FIG. 6E (10% vol. (E)-2-hexenal).
Eight ripe, untreated blueberries were placed in a Petri dish at the bottom of a cylindrical plastic fly cage together with 20 mixed (10 females, 10 males) adult D. suzukii flies for 4 days. All flies were then removed and discarded and half of the pre-infested blueberries was dipped into 10 mL of a 1%, 5% or 10% (E)-2-hexenal aqueous emulsion, while the other half was dipped in 10 mL deionised water as a control. The blueberries were then left to air dry, then placed in empty fly vials with cotton lids and left at ambient room temperature conditions. Survival of D. suzukii larvae was measured by counting the number of adult flies that emerged from the odour-treated blueberries versus the control condition after 12 days. The assay was repeated 5 times.

Row | SMILES | larval chemotactic response (D. melangaster larvae) | Minimal concentration (%) to induce 100% morbidity/mortality in D. suzukii adults (adult D. suzukii flies) | fly emergence from pre-treated blueberries versus untreated (D. suzukii; 1% aqueous emulsion) | fly emergence from pre-treated blueberries versus untreated (D. suzukii; 5% aqueous emulsion) | fly emergence from pre-treated blueberries versus untreated (D. suzukii; 10% aqueous emulsion) | adult fly emergence from pre-infested blueberries versus control (D. suzukii larvae; 1% vol aqueous emulsion dip) | adult fly emergence from pre-infested blueberries versus control (D. suzukii larvae; 5% vol aqueous emulsion dip) | adult fly emergence from pre-infested blueberries versus control (D. suzukii larvae; 10% vol aqueous emulsion dip)
1 | COC(=O)c1ccccc1 [methyl benzoate, Methyl benzoate] | attractive | – | – | – | – | – | – | –
2 | CCC/C=C/C=O [(E)-2-hexenal] | – | 4% | not significantly different from untreated berries | significant reduction of fly emergence | significant reduction of fly emergence | not statistically significantly (NS) different from the control condition | does not result in any adult fly emergence | does not result in any adult fly emergence

— patent US11779015B2, “Pesticide compositions” (FUNDACIÓ CENTRE DE REGULACIÓ GENÒMICA, priority 2017, dated 2023)
